Experimental data: ChEMBL document CHEMBL1136585, “Inhibition of inosine monophosphate dehydrogenase (IMPDH) by 2-[2-(Z)-fluorovinyl]inosine 5'-monophosphate” (Bioorg Med Chem Lett, 2003)

What was measured:
[1] = target: Inosine-5'-monophosphate dehydrogenase (Escherichia coli); test: Inhibition of IMPDH (Inosine 5''-monophosphate dehydrogenase)from Escherichia coli B3 cells
[2] = tested on: Inosine-5'-monophosphate dehydrogenase (Escherichia coli); test: as above; remark: listed apart in the source

Ki [1] [µM]	K inact [2] [s⁻¹]	Structure (SMILES)
62	–	O=P(O)(O)OC[C@H]1O[C@@H](n2cnc3c(Cl)ncnc32)[C@H](O)[C@@H]1O
1.11	0.0269	O=P(O)(O)OC[C@H]1OC(n2cnc3c(O)nc(/C=C/F)nc32)[C@H](O)C1O (single isomer, unassigned)
